Source: patent US9403801B2 (Calitor Sciences, LLC, priority 2014, dated 2016)

Tests used:
JAK1 (h) = JAK1 (h) (Homo sapiens (Human), UniProt P23458); assay: JAK1 kinase assay (33P-ATP filter binding, Millipore); assay type: biochemical
Method: (§1) Kinase assays can be performed by measurement of incorporation of γ-^33P ATP into immobilized myelin basic protein (MBP). High binding white 384 well plates (Greiner) are coated with MBP (Sigma #M−1891) by incubation of 60 μL/well of 20 μg/mL MBP in Tris-buffered saline (TBS; 50 mM Tris pH 8.0, 138 mM NaCl, 2.7 mM KCl) for 24 h at 4° C. Plates are washed 3× with 100 μL TBS. Kinase reactions are carried out in a total volume of 34 μL in kinase buffer (5 mM Hepes pH 7.6, 15 mM NaCl, 0.01% bovine gamma globulin (Sigma #I-5506), 10 mM MgCl2, 1 mM DTT, 0.02% TritonX-100). Compound dilutions are performed in DMSO and added to assay wells to a final DMSO concentration of 1%. Each data point is measured in duplicate, and at least two duplicate assays are performed for each individual compound determination. Enzyme is added to final concentrations of 10 nM or 20 nM, for example. A mixture of unlabeled ATP and γ-^33P ATP is added to start the reaction (2×10^6 cpm of γ-^33P ATP per well (3000 Ci/mmole) and 10 μM unlabeled ATP, typically. The reactions are carried out for 1 h at room temperature with shaking. Plates are washed 7× with TBS, followed by the addition of 50 μL/well scintillation fluid (Wallac). Plates are read using a Wallac Trilux counter. This is only one format of such assays; various other formats are possible, as known to one skilled in the art.
(§2) The above assay procedure can be used to determine the IC50 for inhibition and/or the inhibition constant, Ki. The IC50 is defined as the concentration of compound required to reduce the enzyme activity by 50% under the condition of the assay. The IC50 value is estimated by preparing a 10 point curve using a 1/2 log dilution series (for example, a typical curve may be prepared using the following compound concentrations: 3 μM, 1 μM, 0.3 μM, 0.1 μM, 0.03 μM, 0.01 μM, 0.003 μM, 0.001 μM, 0.0003 μM and 0 μM).
(§3) The kinase assays described herein were performed at Millipore UK Ltd, Dundee Technology Park, Dundee DD2 1SW, UK.

JAK2 (h) = JAK2 (h) (Homo sapiens (Human), UniProt O60674); assay: JAK2 kinase assay (33P-ATP filter binding, Millipore); assay type: biochemical
JAK2 (h), sequence (O60674 whole entry): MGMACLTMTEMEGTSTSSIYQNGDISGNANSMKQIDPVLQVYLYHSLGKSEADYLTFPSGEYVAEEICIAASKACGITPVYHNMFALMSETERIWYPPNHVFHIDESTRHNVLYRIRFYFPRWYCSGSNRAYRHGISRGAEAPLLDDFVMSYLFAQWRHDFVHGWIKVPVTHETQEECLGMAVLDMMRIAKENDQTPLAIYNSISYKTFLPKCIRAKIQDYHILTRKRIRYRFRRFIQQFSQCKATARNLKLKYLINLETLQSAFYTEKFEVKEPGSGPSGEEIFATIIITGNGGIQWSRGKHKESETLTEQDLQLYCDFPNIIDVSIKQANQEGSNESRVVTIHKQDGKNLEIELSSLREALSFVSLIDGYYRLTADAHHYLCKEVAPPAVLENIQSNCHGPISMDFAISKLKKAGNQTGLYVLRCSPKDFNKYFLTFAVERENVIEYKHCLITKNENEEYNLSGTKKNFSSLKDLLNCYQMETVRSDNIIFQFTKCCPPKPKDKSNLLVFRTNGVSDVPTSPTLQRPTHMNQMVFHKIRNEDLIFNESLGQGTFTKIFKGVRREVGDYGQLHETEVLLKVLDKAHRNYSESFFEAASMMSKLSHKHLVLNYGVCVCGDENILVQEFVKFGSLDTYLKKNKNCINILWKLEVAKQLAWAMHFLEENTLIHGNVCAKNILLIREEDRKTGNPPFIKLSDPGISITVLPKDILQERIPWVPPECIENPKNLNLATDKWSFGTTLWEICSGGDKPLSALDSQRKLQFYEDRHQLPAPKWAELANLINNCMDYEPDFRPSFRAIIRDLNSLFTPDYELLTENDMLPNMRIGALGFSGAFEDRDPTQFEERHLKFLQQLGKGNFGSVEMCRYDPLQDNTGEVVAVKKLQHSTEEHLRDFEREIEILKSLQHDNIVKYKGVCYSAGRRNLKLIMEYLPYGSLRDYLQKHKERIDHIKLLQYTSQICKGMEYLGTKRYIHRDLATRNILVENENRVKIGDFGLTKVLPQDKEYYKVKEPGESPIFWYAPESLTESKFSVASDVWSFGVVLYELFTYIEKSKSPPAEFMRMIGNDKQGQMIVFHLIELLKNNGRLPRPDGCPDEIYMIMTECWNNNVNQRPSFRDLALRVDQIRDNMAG
Method: as §1, §2, §3

[1] = Compound stability in human liver microsomes; assay type: in vitro ADME; conditions: for half-life at 5 μM: compound 5 μM, NADPH 1.0 mM, 37° C.; for CLint scaled at 5 μM: in vivo CLint extrapolated
Method: (§4) Human or rat liver microsomes incubations were conducted in duplicate in polypropylene tubes. The typical incubation mixtures consisted of human or rat liver microsomes (0.5 mg protein/mL), compounds of interest (5 μM) and NADPH (1.0 mM) in a total volume of 200 μL potassium phosphate buffer (PBS, 100 mM, pH 7.4). Compounds were dissolved in DMSO and diluted with PBS such that the final concentration of DMSO was 0.05%. The enzymatic reactions were commenced with the addition of protein after a 3-min preincubation and incubated in a water bath open to the air at 37° C. Reactions were terminated at various time points (0, 5, 10, 15, 30, 60 min) by adding equal volume of ice-cold acetonitrile. The samples were stored at −80° C. until LC/MS/MS assays.
(§5) The concentrations of compounds in the incubation mixtures of human or rat liver microsomes were determined by a LC/MS/MS method. The ranges of the linearity in the concentration range were determined for each tested compounds.
(§6) A parallel incubation was performed using denatured microsomes as the negative control, and reactions were terminated at various time points (0, 15, 60 min) after incubation at 37° C.
(§7) Dextromethorphan (70 μM) was selected as the positive control, and reactions were terminated at various time points (0, 5, 10, 15, 30, 60 min) after incubation at 37° C. Both positive and negative control samples were included in each assay to ensure the integrity of the microsomal incubation system.
(§8) The concentrations of compounds in human or rat liver microsome incubations were plotted as a percentage of the relevant zero time point control for each reaction. The in vivo CLint were extrapolated (ref.: Naritomi, Y.; Terashita, S.; Kimura, S.; Suzuki, A.; Kagayama, A.; and Sugiyama, Y.; Prediction of human hepatic clearance from in vivo animal experiments and in vitro metabolic studies with liver microsomes from animals and humans. Drug Metab. Dispos., 2001, 29: 1316-1324).

[2] = Compound stability in rat liver microsomes; assay type: in vitro ADME; conditions: for half-life at 5 μM: compound 5 μM, NADPH 1.0 mM, 37° C.; for CLint scaled at 5 μM: in vivo CLint extrapolated
Method: as §4, §5, §6, §7, §8

[3] = Pharmacokinetics after intravenous and oral administration in rats; assay type: in vivo; conditions: for Clearance (CL) after iv dosing / AUC(0-t) / half-life / Vd: dose 1 mg/kg (Ex. 27: 0.72 mg/kg), iv dosing; for F: oral bioavailability; for AUC(0-t) / half-life / Vd: rat, plasma; for Vd: read-out: Vss
Method: The LC/MS/MS system used in the analysis consists of an Agilent 1200 Series vacuum degasser, binary pump, well-plate autosampler, thermostatted column compartment, the Agilent G6430 Triple Quadrupole Mass Spectrometer with an electrosprayionization (ESI) source. Quantitative analysis was carried out using MRM mode. The parameters for MRM transitions are in the Table A.
An Agilent XDB-C18, 2.1×30 mm, 3.5 μM column was used for the analysis. 5 μL of the samples were injected. Analysis condition: The mobile phase was 0.1% formic acid in water (A) and 0.1% formic acid in methanol (B). The flow rate was 0.4 mL/min. And the gradient of Mobile phase was in the Table B.
Alternatively, an Agilent 6330 series LC/MS/MS spectrometer equipped with G1312A binary pumps, a G1367A autosampler and a G1314C UV detector were used in the analysis. An ESI source was used on the LC/MS/MS spectrometer. The analysis was done in positive ion mode as appropriate and the MRM transition for each analyte was optimized using standard solution. A Capcell MP-C18 100×4.6 mm I.D., […] column (Phenomenex, Torrance, Calif., USA) was used during the analysis. The mobile phase was 5 mM ammonia acetate, 0.1% MeOH in water (A): 5 mM ammonia acetate, 0.1% MeOH in acetonitrile (B) (70:30, v/v). The flow rate was 0.6 mL/min. Column was maintained at ambient temperature. 20 μL of the samples were injected.
The compounds disclosed herein are assessed in pharmacokinetic studies in mice, rats, dogs or monkeys. The compounds are administered as a water solution, 2% HPMC+1% TWEEN®80 in water solution, 5% DMSO+5% solution in saline, 4% MC suspension or capsule. For the intravenous administration, the animals are generally given at 1 or 2 mg/kg dose. For the oral (p.o.) dosing, mice and rats are generally given 5 or 10 mg/kg dose, and dogs and monkeys are generally given 10 mg/kg dose. The blood samples (0.3 mL) are drawn at 0.25, 0.5, 1.0, 2.0, 3.0, 4.0, 6.0, 8.0, 12 and 24 h time points or 0.083, 0.25, 0.5, 1.0, 2.0, 4.0, 6.0, 8.0 and 24 h time points and centrifuged at 3,000 or 4000 rpm for 2 to 10 min. The plasma solutions are collected, and stored at −20° C. or −70° C. until analyzed by LC/MS/MS as described above.

[4] = human, liver microsomes, pH 7.4, Human liver microsomes 0.5 mg protein/mL
[5] = human, liver microsomes, pH 7.4, Human liver microsomes
[6] = rat, liver microsomes, pH 7.4, Rat liver microsomes 0.5 mg protein/mL
[7] = rat, liver microsomes, pH 7.4, Rat liver microsomes
[8] = pH 7.4, Human liver microsomes 0.5 mg protein/mL
[9] = pH 7.4, Rat liver microsomes 0.5 mg protein/mL

JAK1 (h), sequence (P23458 whole entry): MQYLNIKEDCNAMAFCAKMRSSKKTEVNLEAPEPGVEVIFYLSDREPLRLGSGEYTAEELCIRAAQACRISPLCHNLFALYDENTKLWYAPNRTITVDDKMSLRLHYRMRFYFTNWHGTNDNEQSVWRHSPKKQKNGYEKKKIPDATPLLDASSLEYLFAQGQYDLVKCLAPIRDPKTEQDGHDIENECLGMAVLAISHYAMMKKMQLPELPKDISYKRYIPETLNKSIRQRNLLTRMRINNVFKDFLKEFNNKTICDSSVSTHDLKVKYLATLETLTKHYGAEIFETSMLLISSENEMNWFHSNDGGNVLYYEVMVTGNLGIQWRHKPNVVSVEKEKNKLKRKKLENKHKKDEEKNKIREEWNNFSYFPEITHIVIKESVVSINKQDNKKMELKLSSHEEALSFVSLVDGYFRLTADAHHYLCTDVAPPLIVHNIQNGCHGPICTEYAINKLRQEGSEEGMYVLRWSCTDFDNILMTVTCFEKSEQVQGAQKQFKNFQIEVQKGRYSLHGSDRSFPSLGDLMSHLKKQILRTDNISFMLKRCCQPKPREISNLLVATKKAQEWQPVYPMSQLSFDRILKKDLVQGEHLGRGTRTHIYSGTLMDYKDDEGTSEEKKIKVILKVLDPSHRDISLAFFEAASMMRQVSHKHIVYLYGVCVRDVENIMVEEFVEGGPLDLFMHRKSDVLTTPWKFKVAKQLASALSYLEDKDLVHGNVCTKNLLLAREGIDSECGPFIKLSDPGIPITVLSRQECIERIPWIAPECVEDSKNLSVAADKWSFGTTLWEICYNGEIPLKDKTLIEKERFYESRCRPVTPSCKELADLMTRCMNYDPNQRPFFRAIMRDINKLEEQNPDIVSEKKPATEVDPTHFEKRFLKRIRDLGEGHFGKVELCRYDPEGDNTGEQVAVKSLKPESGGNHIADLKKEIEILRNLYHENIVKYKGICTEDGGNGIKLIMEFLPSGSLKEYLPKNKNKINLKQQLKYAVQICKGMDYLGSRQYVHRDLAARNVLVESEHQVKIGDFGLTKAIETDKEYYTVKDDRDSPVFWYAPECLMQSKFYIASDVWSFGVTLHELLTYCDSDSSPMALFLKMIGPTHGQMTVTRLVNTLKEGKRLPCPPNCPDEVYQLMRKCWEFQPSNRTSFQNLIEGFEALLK

Row | Compound | IC50 (JAK1 (h)) [nM] | IC50 (JAK2 (h)) [nM] | Clearance (CL) after iv dosing [3] [mL/min/kg] | F [3] [%] | AUC(0-t) [3] [ng·h/mL] | half-life [3] [min] | Vd [3] [L/kg] | also measured
1 | CN(c1nc(Nc2cnn(C)c2)ncc1Cl)C1CCC2(CCCN(C(=O)CC#N)C2)C1 (stereo not shown) | 3 | 7 | – | – | – | – | – | –
2 | Cn1cc(Nc2ncc(Cl)c(NC3CCC4(CCNC4)CC3)n2)cn1 (single isomer, unassigned) [Ex. 13.3A, 5-chloro-N^2-(1-methyl-1H-pyrazol-4-yl)-N^4-(2-azaspiro[4.5]decan-8-yl)pyrimidine-2,4-diamine] | 2 | 55 | – | – | – | – | – | –
3 | Cn1cc(Nc2ncc(Cl)c(NC3CCC4(CCNC4)CC3)n2)cn1 (single isomer, unassigned) [Ex. 13.3B, 5-chloro-N^2-(1-methyl-1H-pyrazol-4-yl)-N^4-(2-azaspiro[4.5]decan-8-yl)pyrimidine-2,4-diamine] | 2 | 14 | – | – | – | – | – | –
4 | Cc1cnc(Nc2cnn(C)c2)nc1NC1CCC2(CC1)CCN(C(=O)CC#N)C2 (stereo not shown) [Ex. 10, 3-(8-((5-methyl-2-((1-methyl-1H-pyrazol-4-yl)amino)pyrimidin-4-yl)amino)-2-azaspiro[4.5]decan-2-yl)-3-oxopropanenitrile] | 7 | 129 | – | – | – | – | – | half-life at 5 μM [1, 4]: 1510 min; CLint scaled at 5 μM [1, 5]: 1.15 mL/min/kg; half-life at 5 μM [2, 6]: 52.6 min; CLint scaled at 5 μM [2, 7]: 47.2 mL/min/kg
5 | CN(c1nc(Nc2cnn(C)c2)ncc1Cl)C1CCC2(CC1)CCN(C(=O)CC#N)CC2 [Ex. 24, 3-(9-((5-chloro-2-((1-methyl-1H-pyrazol-4-yl)amino)pyrimidin-4-yl)(methyl)amino)-3-azaspiro[5.5]undecan-3-yl)-3-oxopropanenitrile] | 19 | 39 | – | – | – | – | – | –
6 | Cc1cnc(Nc2cnn(C)c2)nc1NC1CCC2(CC1)CCN(C(=O)CC#N)CC2 [Ex. 25, 3-(9-((5-methyl-2-((1-methyl-1H-pyrazol-4-yl)amino)pyrimidin-4-yl)amino)-3-azaspiro[5.5]undecan-3-yl)-3-oxopropanenitrile] | 6 | 86 | – | – | – | – | – | half-life at 5 μM [1, 4]: 522 min; CLint scaled at 5 μM [1, 5]: 3.33 mL/min/kg; half-life at 5 μM [2, 6]: 16.8 min; CLint scaled at 5 μM [2, 7]: 148 mL/min/kg
7 | Cn1cc(Nc2ncc(Cl)c(NC3CCC4(CC3)CCN(C(=O)CC#N)CC4)n2)cn1 [Ex. 26, 3-(9-((5-chloro-2-((1-methyl-1H-pyrazol-4-yl)amino)pyrimidin-4-yl)amino)-3-azaspiro[5.5]undecan-3-yl)-3-oxopropanenitrile] | 2 | 6 | – | – | – | – | – | –
8 | Cn1cc(Nc2ncc(Cl)c(NC3CC4CN(c5ccc(C#N)cn5)CC4C3)n2)cn1 (stereo not shown) [Ex. 33, 6-(5-((5-chloro-2-((1-methyl-1H-pyrazol-4-yl)amino)pyrimidin-4-yl)amino)hexahydrocyclopenta[c]pyrrol-2(1H)-yl)nicotinonitrile] | 0.4 | 3 | 24.8 | 60.4 | 702 | 147 | 3.33 | –
9 | Cn1cnc(Nc2ncc(Cl)c(NC3CC4CN(C(=O)CC#N)CC4C3)n2)c1 (stereo not shown) [Ex. 41] | 20 | 371 | – | – | – | – | – | –
10 | Cc1nn(C)cc1Nc1ncc(Cl)c(NC2CC3CN(C(=O)CC#N)CC3C2)n1 (stereo not shown) [Ex. 64, 3-(5-((5-chloro-2-((1,3-dimethyl-1H-pyrazol-4-yl)amino)pyrimidin-4-yl)amino)hexahydrocyclopenta[c]pyrrol-2(1H)-yl)-3-oxopropanenitrile] | 2 | – | 53.2 | 48.1 | 315 | 24.6 | 1.31 | half-life at 5 μM [1, 8]: 62.8 min; CLint scaled at 5 μM ([1]; pH 7.4, Human liver microsomes): 27.7 mL/min/kg; half-life at 5 μM [2, 9]: 33.6 min; CLint scaled at 5 μM ([2]; pH 7.4, Rat liver microsomes): 74 mL/min/kg
11 | Cc1c(Nc2ncc(Cl)c(NC3CC4CN(C(=O)CC#N)CC4C3)n2)cnn1C (stereo not shown) [Ex. 66, 3-(5-((5-chloro-2-((1,5-dimethyl-1H-pyrazol-4-yl)amino)pyrimidin-4-yl)amino)hexahydrocyclopenta[c]pyrrol-2(1H)-yl)-3-oxopropanenitrile] | 7 | – | 81.8 | 21.0 | 201 | 16.2 | 2.28 | half-life at 5 μM [1, 8]: 81.5 min; CLint scaled at 5 μM ([1]; pH 7.4, Human liver microsomes): 21.3 mL/min/kg; half-life at 5 μM [2, 9]: 21.2 min; CLint scaled at 5 μM ([2]; pH 7.4, Rat liver microsomes): 117 mL/min/kg
12 | CN(c1nc(Nc2cnn(C)c2)ncc1Cl)C1CC2CN(C(=O)CC#N)CC2C1 (stereo not shown) [Ex. 69, 3-(5-((5-chloro-2-((1-methyl-1H-pyrazol-4-yl)amino)pyrimidin-4-yl)(methyl)amino)hexahydrocyclopenta[c]pyrrol-2(1H)-yl)-3-oxopropanenitrile] | 15 | – | 65.2 | 56.2 | 281 | 28.2 | 1.19 | half-life at 5 μM [1, 8]: 95.6 min; CLint scaled at 5 μM ([1]; pH 7.4, Human liver microsomes): 18.2 mL/min/kg; half-life at 5 μM [2, 9]: 12.2 min; CLint scaled at 5 μM ([2]; pH 7.4, Rat liver microsomes): 204 mL/min/kg
